The values below come from PMC8780078, “Long‐acting and extended‐release implant and nanoformulations with a synergistic antiretroviral two‐drug combination controls HIV‐1 infection in a humanized mouse model” (Bioengineering & Translational Medicine, 2021).

What is called EC90 is the concentration needed for an effect of 90%. Read a high EC90 as weaker potency.

Data set [1] is described as follows: Pharmacokinetics of drug release from subdermal implants in Hu‐PBL mice (serum, HPLC). Format: in vivo. The following applies: end of study sera (Day 49 nanoformulations, Day 56 implants) vs EC90 in HIV cell culture. On the procedure:
Hu‐mice were anesthetized by i.p. injection of ketamine (80 mg/kg) and xylazine (12 mg/kg) in PBS (10 ml/kg) based on individual mouse body weight. After anesthetizing, approximately 1–2 cm square of the dorsal skin was shaved using an electric hair clipper, the area was cleaned with ethanol and disinfected with Betadine. Using a sterile disposable surgical blade, an incision of 4–5 mm was made through the skin. Gently, 2 cm × 3 cm subcutaneous pockets were created with forceps and implants loaded with Compound I and EFdA were co‐inserted at the same site. The opening was sutured using absorbable sutures followed by subcutaneous administration of 0.05 mg/kg buprenorphine. The animals were kept warm using the temperature‐controlled heating pads until they regained consciousness. Toxicity was evaluated by clinical observations, cage‐side observations (twice daily), and body weight (at least weekly). […]
The data were plotted as a concentration‐time curve using PRISM 9.0 (GraphPad Software Inc., La Jolla, CA). […] was calculated using Graph pad prism where EC50 of each compound was used along with Hill slope of 1. The predicted area under the curve (AUC) for drug concentration in blood serum against time (AUC predicted) was calculated based on the linear trapezoid method.[29] AUC was also calculated for PVLs and CD4+ T‐cells in infection experiments. […]

Data set [2] deals with HERG ion channel. More on the design: method as in PMID 28167742. The following applies: cited from earlier work.
The test system of data set [3] is HIV‐1. The following applies: cited from earlier work.
Data set [4] deals with HIV‐1. The data set can be described thus: Antiviral potency in cellular assays / HIV cell culture. It is filed as cell-based. The following applies: Human immunodeficiency virus 1, in Discussion.

Take `N#Cc1ccc2c(Oc3ccc(F)cc3OCCn3ccc(=O)[nH]c3=O)cc(F)cc2c1` [Compound I]: the “serum concentration fold above EC90” value in data set [1] is recorded as “approximately 100 fold”. Further, the “inhibition of the HERG ion channel” value in data set [2] was “no inhibition”. Moreover, the “synergy of Compound I with EFdA” value in data set [3] (cell culture) is listed as “potent synergy”. Also, the “activity against wild‐type HIV‐1 strains and drug resistant variants” value in data set [3] (wild‐type, Y181C and K103N) was “active in the nanomolar range”. For the same compound, the 90% effect concentration (EC90) in data set [4] was found to be 10 ng/mL; in data set [4] (from EC50 with Hill slope of 1), 25.2 nM.

As to `C#C[C@]1(CO)O[C@@H](n2cnc3c(N)nc(F)nc32)C[C@@H]1O` [EFdA, 4′‐ethynyl‐2‐fluoro‐2′‐deoxyadenosine, reference compound], in data set [1], the “serum concentration fold above EC90” value is about 1100 fold. Moreover, the EC90 in data set [4] came out at 5 ng/mL; in data set [4] (from EC50 with Hill slope of 1) it was 17.1 nM.
